≈ marks a conversion by molar mass, not a printed value. Like-named read-outs stand apart in the source and are kept apart here.
How the values were obtained:
Format in all cases: cell-based
[1] = test system: Enterococcus faecium (VRE) 12185 Clin waste; experiment: MIC agar dilution, VRE strain 24
Description: (§1) Molar equivalent concentrations were used to allow comparison between compounds of differing molecular mass. Due to weighing difficulties, any compound in solid form was melted in a water bath prior to dilution. To make ten-times strength concentrations, which takes into account agar dilution, 0.0352 mmol of each compound was weighed into plastic universal bottles and 4 mL of sterile distilled water (SDW) was added. To produce a homogenous emulsion the universals were vortexed; once achieved the emulsions were serial diluted by adding 2 mL to 2 mL of SDW.
(§2) For every 100 mL of Isosensitest agar (IST) (CM0471; Oxoid, Basingstoke, England), 3.1 g of the IST powder was added to 100 mL SDW (as per manufacturer's instructions) and sterilised for 15 minutes at 121° C. Once sterilised, the molten agar was cooled to 50° C. in a water-bath. Subsequently 4.8 g of CCEY powder (BC2160; Bioconnections, Wetherby, England), also known as Brazier's medium, was added to 100 mL SDW for every 100 mL of agar needed. This was then sterilised for 15 minutes at 121° C. Once sterilised the molten agar was cooled to 50° C. in a water-bath and 4 mL of egg-yolk emulsion (S2073; TCS Biosciences Ltd, Buckingham, United Kingdom) and 1 mL of lysed defibrinated horse blood (HB035; TCS Biosciences Ltd, Buckingham, United Kingdom) were also added for every 100 mL needed. Horse blood lysis is achieved by dilution to half concentration with SDW; when fully lysed the mixture will turn dark red in colour.
(§3) 18 mL agar was added to each universal and then poured into sterile Petri dishes. This step creates a 1/10 dilution resulting in agar plates of the required strength. Control plates for each set of strains were created by adding 18 mL of agar to 2 mL of SDW.
(§4) Suspensions of each bacterial species were prepared with a density equal to that of a 0.5 McFarland standard using a densitometer. All suspensions were made using sterile distilled water and fresh 18-20 hour cultures. As a 0.5 McFarland standard contains 1.5×10^8 CFU/mL and the multipoint inoculators applies 1 μL spots of liquid, each bacterial suspension was diluted 1/15 (20 μL suspension to 280 μL sterile distilled water).
(§5) Bacterial suspensions were prepared from fresh 18-24 hour cultures as previously described. 1 μL of each strain was inoculated onto all 100 agar plates containing a different chemical concentration and the 2 control plates. This was done using a multipoint inoculator which inoculates 20 strains per plate. All plates were incubated for 22 hours at 37° C. in aerobic conditions.
(§6) Each plate was examined for bacterial growth after 22 and 48 hours, with each being incubated in between examinations. A positive result was recorded as growth of ≧10 colonies. A negative result was recorded as growth of <10 colonies as this is equivalent to 99.9% inhibition. The lowest concentration of chemical that inhibited growth was recorded as the MIC. The results are recorded in Table IV below, where the numbers are quoted in mmol/L.
(§7) Given the positive performance of the ethoxylates of lauryl alcohol in reducing the MIC for a number of the micro-organisms tested, further MIC testing of Laureth-1 [C12E1] through to Laureth-8 [C12E8] was conducted on each of the following: • 10 strains of vancomycin-resistant enterococci (VRE)—listed in Table V below; and • 20 strains of methicillin-resistant Staphylococcus aureus (MRSA)—listed in Table VI.
(§8) The alkanol, alkanol derivatives, agar plates, and inocula were all prepared in the same way as described above.
(§9) The plates were examined in the same manner as described above and the results are recorded in Table VII below, where the numbers are quoted in mmol/L.

MRSA EMRSA 16 00036/95 = experiment: MIC agar dilution, MRSA strain 46; conditions: Staphylococcus aureus
Description: as §1, §2, §3, §4, §5, §6, §7, §8, §9

MRSA EMRSA 15 1729/98 = experiment: MIC agar dilution, MRSA strain 42; conditions: Staphylococcus aureus
Description: as §1, §2, §3, §4, §5, §6, §7, §8, §9

[2] = test system: Enterococcus faecalis (VRE) MB 726; experiment: MIC agar dilution, VRE strain 28
Description: as §1, §2, §3, §4, §5, §6, §7, §8, §9

[3] = test system: Enterococcus faecalis (VRE) MB 1969; experiment: MIC agar dilution, VRE strain 27
Description: as §1, §2, §3, §4, §5, §6, §7, §8, §9

MRSA EMRSA 16 00998/95 = experiment: MIC agar dilution, MRSA strain 47; conditions: Staphylococcus aureus
Description: as §1, §2, §3, §4, §5, §6, §7, §8, §9

MRSA EMRSA 16 18200/95 = experiment: MIC agar dilution, MRSA strain 48; conditions: Staphylococcus aureus
Description: as §1, §2, §3, §4, §5, §6, §7, §8, §9

[4] = test system: Enterococcus faecium (VRE) MB 305; experiment: MIC agar dilution, VRE strain 25
Description: as §1, §2, §3, §4, §5, §6, §7, §8, §9

MRSA EMRSA 15 19972/98 = experiment: MIC agar dilution, MRSA strain 39; conditions: Staphylococcus aureus
Description: as §1, §2, §3, §4, §5, §6, §7, §8, §9

MRSA EMRSA 16 07924/95 = experiment: MIC agar dilution, MRSA strain 49; conditions: Staphylococcus aureus
Description: as §1, §2, §3, §4, §5, §6, §7, §8, §9

[5] = test system: Enterococcus faecium (VRE) MB 3137; experiment: MIC agar dilution, VRE strain 26
Description: as §1, §2, §3, §4, §5, §6, §7, §8, §9

MRSA BEL 97597 = experiment: MIC agar dilution, MRSA strain 33; conditions: Staphylococcus aureus
Description: as §1, §2, §3, §4, §5, §6, §7, §8, §9

Staphylococcus aureus = experiment: MIC agar dilution, micro-organism 13 (6571); conditions: Staphylococcus aureus, Staphylococcus aureus 6571, read-out: MIC
Summary of the method: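 Twofold dilutions of compound emulsions in water were set in Isosensitest agar with Brazier's CCEY medium, egg yolk and lysed horse blood. Spots of 1 µL from 0.5 McFarland suspensions diluted 1/15 were incubated aerobically at 37 °C and read at 22 and 48 h. MIC (mmol/L) was the lowest concentration giving <10 colonies.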

CCCCCCCCCCCCOCCOCCO [L2, Diethylene Glycol Monododecyl Ether]
MIC ([1]; 22 hrs): > 880 µM | MIC ([1]; 48 hrs): > 880 µM | MIC (MRSA EMRSA 16 00036/95; 22 hrs): 110 µM (≈ 30.2 µg/mL) | MIC (MRSA EMRSA 16 00036/95; 48 hrs): 110 µM (≈ 30.2 µg/mL) | MIC (MRSA EMRSA 15 1729/98; 22 hrs): 110 µM (≈ 30.2 µg/mL) | MIC (MRSA EMRSA 15 1729/98; 48 hrs): 110 µM (≈ 30.2 µg/mL) | MIC ([2]; 22 hrs): 220 µM (≈ 60.4 µg/mL) | MIC ([2]; 48 hrs): 220 µM (≈ 60.4 µg/mL) | MIC ([3]; 22 hrs): 220 µM (≈ 60.4 µg/mL) | MIC ([3]; 48 hrs): 220 µM (≈ 60.4 µg/mL) | MIC (MRSA EMRSA 16 00998/95; 22 hrs): 110 µM (≈ 30.2 µg/mL) | MIC (MRSA EMRSA 16 00998/95; 48 hrs): 110 µM (≈ 30.2 µg/mL) | MIC (MRSA EMRSA 16 18200/95; 22 hrs): 110 µM (≈ 30.2 µg/mL) | MIC (MRSA EMRSA 16 18200/95; 48 hrs): 110 µM (≈ 30.2 µg/mL) | MIC ([4]; 22 hrs): 880 µM (≈ 242 µg/mL) | MIC ([4]; 48 hrs): 880 µM (≈ 242 µg/mL) | MIC (MRSA EMRSA 15 19972/98; 22 hrs): 110 µM (≈ 30.2 µg/mL) | MIC (MRSA EMRSA 15 19972/98; 48 hrs): 110 µM (≈ 30.2 µg/mL) | MIC (MRSA EMRSA 16 07924/95; 22 hrs): 110 µM (≈ 30.2 µg/mL) | MIC (MRSA EMRSA 16 07924/95; 48 hrs): 110 µM (≈ 30.2 µg/mL) | MIC ([5]; 22 hrs): > 880 µM | MIC ([5]; 48 hrs): > 880 µM | MIC (MRSA BEL 97597; 22 hrs): 110 µM (≈ 30.2 µg/mL) | MIC (MRSA BEL 97597; 48 hrs): 110 µM (≈ 30.2 µg/mL) | MIC (Staphylococcus aureus; 22 h, 22 hrs): 110 µM (≈ 30.2 µg/mL) | MIC (Staphylococcus aureus; 48 h, 48 hrs): 110 µM (≈ 30.2 µg/mL)

CCCCCCCCCCCCOCCOCCOCCO [L3, Triethylene Glycol Monododecyl Ether]
MIC ([1]; 22 hrs): 880 µM (≈ 280 µg/mL) | MIC ([1]; 48 hrs): > 880 µM | MIC (MRSA EMRSA 16 00036/95; 22 hrs): 55 µM (≈ 17.5 µg/mL) | MIC (MRSA EMRSA 16 00036/95; 48 hrs): 55 µM (≈ 17.5 µg/mL) | MIC (MRSA EMRSA 15 1729/98; 22 hrs): 110 µM (≈ 35 µg/mL) | MIC (MRSA EMRSA 15 1729/98; 48 hrs): 110 µM (≈ 35 µg/mL) | MIC ([2]; 22 hrs): 220 µM (≈ 70.1 µg/mL) | MIC ([2]; 48 hrs): 220 µM (≈ 70.1 µg/mL) | MIC ([3]; 22 hrs): 440 µM (≈ 140 µg/mL) | MIC ([3]; 48 hrs): 440 µM (≈ 140 µg/mL) | MIC (MRSA EMRSA 16 00998/95; 22 hrs): 55 µM (≈ 17.5 µg/mL) | MIC (MRSA EMRSA 16 00998/95; 48 hrs): 55 µM (≈ 17.5 µg/mL) | MIC (MRSA EMRSA 16 18200/95; 22 hrs): 110 µM (≈ 35 µg/mL) | MIC (MRSA EMRSA 16 18200/95; 48 hrs): 110 µM (≈ 35 µg/mL) | MIC ([4]; 22 hrs): 440 µM (≈ 140 µg/mL) | MIC ([4]; 48 hrs): 440 µM (≈ 140 µg/mL) | MIC (MRSA EMRSA 15 19972/98; 22 hrs): 110 µM (≈ 35 µg/mL) | MIC (MRSA EMRSA 15 19972/98; 48 hrs): 110 µM (≈ 35 µg/mL) | MIC (MRSA EMRSA 16 07924/95; 22 hrs): 55 µM (≈ 17.5 µg/mL) | MIC (MRSA EMRSA 16 07924/95; 48 hrs): 55 µM (≈ 17.5 µg/mL) | MIC ([5]; 22 hrs): 880 µM (≈ 280 µg/mL) | MIC ([5]; 48 hrs): > 880 µM | MIC (MRSA BEL 97597; 22 hrs): 55 µM (≈ 17.5 µg/mL) | MIC (MRSA BEL 97597; 48 hrs): 55 µM (≈ 17.5 µg/mL) | MIC (Staphylococcus aureus; 22 h, 22 hrs): ≤ 50 µM | MIC (Staphylococcus aureus; 48 h, 48 hrs): ≤ 50 µM

Source: US20130165368A1, “ANTIMICROBIAL COMPOUNDS” (priority 2010, published 2013)
